Consider three compounds from US7217808B2, “RFRP-3 and DNA thereof” (Takeda Pharmaceutical Company, Ltd., priority 2001, dated 2007).

One assay deals with T1, rOT7T022L (Rattus norvegicus, UniProt Q9EP86).
T1 construct: expressed in transfected cells; host or cells: CHO dhfr- cells (clone CHO-rOT7T022L)
Put plainly: Cytosensor acidification rate of rOT7T022L receptor-expressing CHO cells. Format: cell-based. The settings on record: peptide exposure 7 min 2 sec. The text has this: The rOT7T022L receptor-expressing CHO cells obtained in (2) in Reference Example 7 were sown in cytosensor capsules at 2.7×10^5 cells/capsule. After overnight culture, the capsules were mounted in the work station of a cytosensor. The assay medium (0.1% bovine serum albumin-containing low buffered RPMI1640 medium) positioned in the flow route of the cytosensor was supplied to the cells under pump ON (80 sec)/pump OFF (40 sec) cycles. In each cycle, the change ratio of extracellular pH for 30 sec starting from 8 sec after the stop of the pump was calculated as acidification rate. The time course of acidification rate was monitored. When this rate began to show stable values, the flow route was shifted to thereby expose individual peptide to the cells for 7 min and 2 sec. The values of acidification rate in individual wells were normalized taking the values for the 3 cycles immediately before the peptide exposure as 100%.

A further assay concerns the target T2, human-type OT7T022 (Homo sapiens, UniProt Q9GZQ6).
T2 construct: expressed in transfected cells; host or cells: CHO cells
In words: Binding inhibition of 125I-Tyr-hRFRP-3(8) to membrane fraction from human-type OT7T022-expressing CHO cells. To be noted: room temperature 1.5 hr. How it is done: With this buffer, the membrane fraction from human-type OT7T022-expressing CHO cells was diluted to give a concentration of 1 μg/25 μl. […] Sample solutions prepared, NSB and the assay buffer were dispensed into polypropylene 96-well plates in quadruplicate as total 50 μl/well. […] Twenty-five microliter of the membrane fraction solution from human-type OT7T022-expressing CHO cells was added thereto, agitated with a plate mixer and incubated at room temperature for 1.5 hr. Using a cell harvester for 96-well plates, the contents of each well were adsorbed onto a filter unit (GF/C, treated with polyethylene imine) pre-moisturized with washing buffer (50 mM Tris-HCl, pH 7.5). After washing 5 times with the washing buffer, the adsorbate was dried thoroughly. The lower part of the filter unit was sealed. Then, 50 μl of liquid scintillator was added to each well and the upper part of the filter unit was sealed. Radioactivity was measured with a Top Count (Packard), and data were analyzed in triplicate.

The target in the next assay is T3, Human OT7T022 receptor (Homo sapiens, UniProt Q9GZQ6).
T3 construct: expressed in transfected cells; host or cells: CHO cells
In words: Effect of pertussis toxin upon activation of human OT7T022 receptor (cAMP production inhibition). It counts as cell-based. The settings on record: 0.1 μM peptide, 1 μM forskolin, 100 ng/ml pertussis toxin overnight. How it is done:
The human OT7T022 receptor-expressing CHO cells obtained in Example A8 were plated in 24-well plates at 1×10^5 cells/well and cultured overnight. Then, the medium was changed for 100 ng/ml pertussis toxin (Sigma)-containing medium or a control medium, and the cells were cultured overnight. The cells were washed with Hanks' buffer (HBSS) supplemented with 0.05% BSA and 0.2 mM IBMX and then pre-incubated in the same buffer at 37° C., for 30 min. Subsequently, the buffer was exchanged for HBSS supplemented with 0.05% BSA and 0.2 mM IBMX, HBSS supplemented with 1 μM forskolin alone, or HBSS supplemented with 1 μM forskolin and a peptide at various concentrations, and the cells were incubated at 37° C. for 30 min. After the incubation, the buffer was exchanged for HBSS supplemented with 0.05% BSA and 0.2 mM IBMX (black column), this buffer supplemented with 1 μM forskolin alone (white column), or this buffer supplemented with 1 μM forskolin and 0.1 μM RFRP-1-12 (peptide having the amino acid sequence which is from position 81 (Met) to position 92 (Phe) of SEQ ID NO: 1) (column with slant lines), and the cells were incubated at 37° C. for 30 min. After the incubation, intracellular cAMP was extracted and determined for each well according to the protocol attached to the cAMP EIA Kit (Amersham). […]
(Changes in cAMP serve as a functional read-out for many G protein-coupled receptors.)

The subject of a further assay is adult male Wistar rats. Put plainly: Plasma pituitary hormone levels after administration into the third ventricle. It counts as in vivo, rat. The settings on record: 10 mnol into the third ventricle; for plasma prolactin levels: vs PBS control. How it is done: Effects of the administration of the peptide represented by SEQ ID NO: 39 into the third ventricle upon pituitary hormone levels were examined. Briefly, adult male Wistar rats (body weight 290–350 g at the time of surgery) were anesthetized by intraperitoneal administration of 50 mg/kg pentobarbital and fixed in a stereotaxic apparatus for rat brain. The incisor bar was set 3.3 mm below the interaural line. The skull surface was exposed, and a hole was drilled in the skull with a dental drill in order to implant a guide cannula Further, an anchor screw was embedded at one place around the hole. A stainless guide cannula AG-12 (inside dia. 0.4 mm, outside dia. 0.5 mm; Eicom) was inserted so that its tip is located above the third ventricle. The stereotaxic coordinates were set as follows according to the atlas of Paxinos and Watson (1998): AP: +7.2 mm (from the interaural line), L: 0.0 mm, H: +2.0 mm (from the interaural line). The guide cannula was fixed onto the skull with instant glue, dental cement and the anchor screw. A stainless dummy cannula AD-12 (outside dia. 0.35 mm; Eicom) was inserted into the guide cannula and fixed with a cap nut (Eicom). After the surgery, the rats were bred separately in individual cages for more than one week to allow recovery.
The day before the experiment, the rats that had undergone the above surgery were anesthetized by intraperitoneal administration of 50 mg/kg pentobarbital and fixed on anatomical pads in face-up position. Then, a catheter (SP35; Natsume Seisakusho) was inserted into the right jugular vein. The next day, 400 μl of blood was taken from the jugular vein. In order to prevent blood coagulation, 20 μl of physiological saline containing 200 units/ml heparin was put in advance in the injection syringe. The cap nut and the dummy cannula installed on the rat skull were removed. Instead of them, a stainless microinjection cannula AMI13 (inside dia. 0.17 mm, outside dia. 0.35 mm; Eicom) connected with a Teflon tube (length 50 cm, inside dia. 0.1 mm, outside dia. 0.4 mm; Eicom) was inserted into the guide cannula. The length of the microinjection cannula was adjusted in advance so that 1 mm of its tip is exposed from the guide cannula. One end of the Teflon tube was connected with a microsyringe pump. Then, a total 10 μl of PBS alone or PBS containing the peptide represented by SEQ ID NO: 39 was injected into the third ventricle at a flow rate of 5 μl/min. One minute after the completion of the injection, the microinjection cannula was removed, and a dummy cannula was fixed again with a cap nut. A 400 μl blood sample was taken from the cannula inserted into the jugular vein immediately before the start of the intraventricular administration and at 10, 20, 30, 40 and 60 min after the start of the intraventricular administration. The collected blood was centrifuged at 5,000 rpm for 10 min in a high-speed refrigerated microcentrifuge (MR-150; Tomy Seiko) to recover the supernatant (plasma). The prolactin levels in the plasma were measured by radioimmunoassay.
The results are expressed as mean±S.E.M. Whether there is a significant difference between the group to which PBS containing the peptide represented by SEQ ID NO: 39 was administered and the control group to which PBS alone was administered was tested by Student's t-test. Differences were assessed with two-sided tests, and significance level 5% or below was judged statistically significant.

T1 sequence (Q9EP86 whole entry): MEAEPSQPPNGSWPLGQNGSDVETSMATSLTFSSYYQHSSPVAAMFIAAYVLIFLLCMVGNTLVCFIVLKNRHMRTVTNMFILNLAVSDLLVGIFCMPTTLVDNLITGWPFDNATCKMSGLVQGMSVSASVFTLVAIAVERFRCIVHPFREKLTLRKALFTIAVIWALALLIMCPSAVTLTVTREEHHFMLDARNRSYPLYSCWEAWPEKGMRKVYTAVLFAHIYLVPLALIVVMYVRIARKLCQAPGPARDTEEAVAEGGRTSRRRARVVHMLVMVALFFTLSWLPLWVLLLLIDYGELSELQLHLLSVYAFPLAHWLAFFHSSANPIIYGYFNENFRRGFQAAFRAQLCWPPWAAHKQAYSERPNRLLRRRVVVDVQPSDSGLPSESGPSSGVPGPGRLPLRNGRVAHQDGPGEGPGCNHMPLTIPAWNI
T2 sequence (Q9GZQ6 whole entry): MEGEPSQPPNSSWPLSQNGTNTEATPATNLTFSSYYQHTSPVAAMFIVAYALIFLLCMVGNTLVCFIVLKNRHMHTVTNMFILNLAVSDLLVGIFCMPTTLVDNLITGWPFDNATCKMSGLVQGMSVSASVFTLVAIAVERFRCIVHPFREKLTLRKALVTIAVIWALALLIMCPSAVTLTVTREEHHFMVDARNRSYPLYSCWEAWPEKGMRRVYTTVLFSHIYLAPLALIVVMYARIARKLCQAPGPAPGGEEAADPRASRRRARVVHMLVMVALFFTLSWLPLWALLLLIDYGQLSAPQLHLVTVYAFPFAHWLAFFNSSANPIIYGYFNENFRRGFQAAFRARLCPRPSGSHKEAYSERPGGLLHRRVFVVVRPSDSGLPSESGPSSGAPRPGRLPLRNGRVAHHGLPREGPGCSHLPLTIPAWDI
T3 sequence (Q9GZQ6 whole entry): as above

`CC(C)C[C@H](NC(=O)[C@H](CC(N)=O)NC(=O)[C@@H]1CCCN1C(=O)[C@@H](N)C(C)C)C(=O)N1CCC[C@H]1C(=O)N[C@@H](CCC(N)=O)C(=O)N[C@@H](CCCNC(=N)N)C(=O)N[C@@H](Cc1ccccc1)C(N)=O`: the “reactivity of rOT7T022L receptor-expressing CHO cells (acidification rate)” value at rOT7T022L was “reactive”.

As usually defined, the IC50 is the concentration needed to halve the response being measured. Higher therefore signals weaker potency. For the compound “H-ATANLPLRSGRNMEVSLVRRVPNLPQRF-NH2 [hRFRP-3 (28)]”, on human-type OT7T022, the concentration for half-maximal inhibition (IC50) amounted to 1.6 nM.

As to H-MPHSFANLPLRF-NH2, at Human OT7T022 receptor, the “cAMP production inhibitory activity in cells treated with pertussis toxin” value is “disappeared”. Besides, in the assay on adult male Wistar rats, the “ACTH level in the plasma” value was “did not show significant changes”, the “GH level in the plasma” value is “did not show significant changes”, the “LH level in the plasma” value was “did not show significant changes” and the “TSH level in the plasma” value is on record as “did not show significant changes”. Besides, the plasma prolactin levels result with adult male Wistar rats (60 min after administration) was “significant difference was observed”. Further, the plasma prolactin levels entry in the assay on adult male Wistar rats (at 20, 30 and 40 min after administration) was “increased significantly”. The plasma prolactin levels result with adult male Wistar rats (from 10 min after administration) is reported as “increasing tendency”. For the same compound, the “reactivity of rOT7T022L receptor-expressing CHO cells (acidification rate)” value at rOT7T022L is on record as “reactive”.
